This passage reports ROS and glutathione results from patent publication US20160058759A1, “GLUTAMINASE INHIBITOR THERAPY” (Board of Regents, The University of Texas System, priority 2014, published 2016).

Experiment [1] concerns NRF2/KEAP1 mutant NSCLC cell lines. Nature of the experiment: ROS after GLS inhibitors. Type of experiment: cell-based. How it is done: One day prior to the experiment, A549 cells were seeded in 6 well dishes (250,000 cells per well). The day of the experiment, cells were treated with 0.01% DMSO or 1 μM IACS-011393 for 24 hours. The following day, an allocated well was treated with hydrogen peroxide for 20-30 minutes as a positive control for ROS generation. All wells were then stained with CM-H2DCFDA (5 μM, Life Technologies) for 30 minutes at 37° C., washed with 1× PBS, harvested by trypsinization, and re-suspended in 400 μl phenol-free RPMI medium. Cells were strained through a […] cell strainer and analyzed using a flow cytometer (LSR Fortessa).

The test system is the same in experiment [2]. Nature of the experiment: Glutathione level after GLS inhibitors. The format is cell-based. How it is done: Cells were allowed to settle and attach overnight. Cells plated in triplicate for each concentration and control examined. […] Cells were incubated with compound or relevant controls for 24 hours. On Day 2, 24 hours after treatment, cells were analyzed by GSH-Glo (PromegaV6912) per manufacturer's instructions. Plates were read in luminescence mode on a PheraStarFS plate reader. Duplicate wells were plated and then stained with crystal violet in order to correct for differences in cell growth as described below.

Consider `O=C(Cc1cccc(OC(F)(F)F)c1)Nc1ccc(CCCCc2nnc(NC(=O)Cc3ccccn3)s2)nn1` [CB-839, 2-(pyridin-2-yl)-N-{5-[4-(6-{2-[3-(trifluoromethoxy)phenyl]acetamido}pyridazin-3-yl)butyl]-1,3,4-thiadiazol-2-yl}acetamide], for which, in experiment [1], the ROS entry is given as “increase in ROS”. For the same compound, the glutathione result in experiment [2] is listed as “reduction in glutathione”.

`O=C(Cc1ccccn1)Nc1nnc(CCS(=O)(=O)CCc2nnc(NC(=O)Cc3ccccn3)s2)s1` [compound 13, N,N′-(5,5′-(2,2′-sulfonylbis(ethane-2,1-diyl))bis(1,3,4-thiadiazole-5,2-diyl))bis(2-(pyridin-2-yl)acetamide)]: the ROS entry in experiment [1] is “increase in ROS”. Moreover, the glutathione result in experiment [2] is recorded as “reduction in glutathione”.

For the compound `O=C(Cc1ccccc1)Nc1nnc(CCSCCc2nnc(NC(=O)Cc3ccccc3)s2)s1` [BPTES, N,N′-(5,5′-(2,2′-thiobis(ethane-2,1-diyl))bis(1,3,4-thiadiazole-5,2-diyl))bis(2-phenylacetamide)], in experiment [1], the ROS result is listed as “increase in ROS”. Further, the glutathione entry in experiment [2] is recorded as “reduction in glutathione”.
